Consider one molecule from patent US7179814B2, “Agents for controlling plant pests” (priority 1998, dated 2007).

Read-outs that look alike come from different tables or passages of the source.

In test [1] the test system is Phytophthora infestans. Type of test: in vivo. The settings on record: single active compound.
In test [2] the test system is Fusarium culmorum. The test is described as follows: Fusarium culmorum test (wheat)/seed treatment. The settings on record: 75 g/ha, dry seed dressing, approximately 3 weeks after sowing. The test is classed as in vivo. The procedure: The active compounds are applied as a dry dressing. They are prepared by extending the active compound in question with ground minerals to give a finely pulverulent mixture which ensures even distribution on the surface of the seeds.
For the dressing, the infected seeds are shaken with the dressing in a closed glass bottle for 3 minutes.
2×100 seeds of the wheat are sown at a depth of 1 cm into standard soil, and the wheat is cultivated in a greenhouse at a temperature of approximately 18° C. and at a relative atmospheric humidity of approximately 95% in seed containers receiving 15 hours of light per day.
The evaluation of the plants for symptoms is carried out approximately 3 weeks after sowding. 0% means an efficacy which corresponds to that of the control, whereas an efficacy of 100% means that no infection is observed.

Test [3] concerns Botrytis cinerea. The test can be described thus: Botrytis test (bean)/protective. Conditions: single active compound. The test is classed as in vivo. The procedure:
(§1) To produce a suitable preparation of active compound, 1 part by weight of active compound or active compound combination is mixed with the stated amounts of solvent and emulsifier, and the concentrate is diluted with water to the desired concentration, or a commercial formulation of active compound or active compound combination is diluted with water to the desired concentration.
To test for protective activity, young plants are sprayed with the active compound preparation at the stated application rate. After the spray coating has dried on, 2 small pieces of agar colonized by Botrytis cinerea are placed onto each leaf. The inoculated plants are placed in a dark chamber at approximately 20° C. and 100% relative atmospheric humidity.
2 days after the inoculation, the size of the disease spots on the leaves is evaluated. 0% means an efficacy which corresponds to that of the control, whereas an efficacy of 100% means that no infection is observed.

Test [4] concerns green rice leaf hopper (Nephotettix cincticeps). The test is described as follows: Nephotettix test (rice seedling dip). Type of test: in vivo. On the procedure: (§2) To produce a suitable preparation of active compound, 1 part by weight of an active compound or an active compound combination is mixed with the stated amounts of solvent and emulsifier, and the concentrate is diluted with water to the desired concentration.
Rice seedlings (Oryza sativa) are treated by being dipped into the active compound preparation of the desired concentration and are populated with the green rice leaf hopper (Nephotettix cincticeps) while the leaves are still moist.
After the desired period of time, the kill in % is determined. 100% means that all the leaf hoppers have been killed; 0% means that none of the leaf hoppers have been killed.

Test [5] concerns Diabrotica balteata - larvae in the soil. The test can be described thus: Critical concentration test/soil insects, Diabrotica balteata (Example Q). The test is classed as in vivo. Conditions: 1.25 ppm in soil; efficacy calculated from number of emerged maize plants. The procedure: To produce a suitable preparation of active compound, 1 part by weight of active compound is mixed with the stated amount of solvent, the stated amount of emulsifier is added and the concentrate is diluted with water to the desired concentration. Here, the concentration of the active compound in the preparation is almost irrelevant; only the amount by weight of active compound per volume unit of soil, which is stated in ppm (mg/l), matters. The soil is filled into 0.5 l pots and these are allowed to stand at 20° C.
Immediately after preparation, 5 maize corns are placed into each pot. After 3 days, the test insects are placed into the treated soil. After a further 7 days, the efficacy is determined. The efficacy is calculated from the number of maize plants which have emerged.

Test [6] deals with Pyrenophora teres. The test is described as follows: Pyrenophora teres test (barley)/protective. The test is classed as in vivo. Conditions: single active compound. The procedure: as §1
To test for protective activity, young plants are sprayed with the active compound preparation at the stated application rate. After the spray coating has dried on, the plants are sprayed with a conidia suspension of Pyrenophora teres. The plants remain in an incubation cabin at 20° C. and 100% relative atmospheric humidity for 48 hours.
The plants are then placed in a greenhouse at a temperature of approximately 20° C. and a relative atmospheric humidity of approximately 80%.
Evaluation is carried out 7 days after the inoculation. 0% means an efficacy which corresponds to that of the control, whereas an efficacy of 100% means that no infection is observed.

Test [7] concerns green peach aphid. The test is described as follows: Myzus test (cabbage leaf dip). The test is classed as in vivo, Myzus (green peach aphid). Conditions: concentration 0.00016 %. The procedure:
as §2
Cabbage leaves (Brassica oleracea) which are heavily infested by the green peach aphid are treated by being dipped into the active compound preparation of the desired concentration.
After the desired period of time, the kill in % is determined. 100% means that all aphids have been killed; 0% means that none of the aphids have been killed.

Test [8] relates to Spodoptera frugiperda. The test is described as follows: Critical concentration test/soil insects, Spodoptera frugiperda. Type of test: in vivo. The settings on record: 120 h, 5 days after infestation, read-out: Kill in %. On the procedure:
To produce a suitable preparation of active compound, 1 part by weight of the active compound or the active compound mixture is mixed with the stated amounts of solvent and emulsifier, and the concentrate is diluted with water to the desired concentration.
The active compound preparation is mixed intimately with soil. Here, the concentration of the active compound in the preparation is almost irrelevant; only the amount by weight of active compound or active compound mixture per volume unit of soil, which is stated in ppm (mg/l), matters.
Soil is filled into 0.5 l pots and these are allowed to stand at 20° C. Immediately after preparation, 3 pre-germinated maize corns are placed into each pot. After the maize corns have emerged, boring sleeves are placed onto the pots. 9 days after preparation, the maize is populated with the test insects. After a further 5 days, the kill in % is determined. 100% means that all test insects have been killed; 0% means that the number of insects which are still alive is the same as for the untreated control.

Test [9] concerns Heliothis virescens caterpillars. The test is described as follows: Heliothis virescens test (soya bean shoot dip). Type of test: in vivo. Conditions: concentration 0.00016 %. The procedure:
as §2
Soya bean shoots (Glycine max) are treated by being dipped into the active compound preparation of the desired concentration and are populated with Heliothis virescens caterpillars while the leaves are still moist.
After the desired period of time, the kill in % is determined. 100% means that all caterpillars have been killed; 0% means that none of the caterpillars have been killed.

In test [10] the test system is Sphaerotheca fuliginea. The test can be described thus: Sphaerotheca test (cucumber)/protective. The test is classed as in vivo. The settings on record: 10 g/ha, single active compound, 10 days after inoculation. On the procedure:
as §1
To test for protective activity, young plants are sprayed with the commercial active compound preparation at the stated application rate. After the spray coating has dried on, the plants are inoculated with an aqueous spore suspension of Sphaerotheca fuliginea. The plants are then placed in a greenhouse at approximately 23° C. and a relative atmospheric humidity of approximately 70%.
Evaluation is carried out 10 days after the inoculation. 0% means an efficacy which corresponds to that of the control, whereas an efficacy of 100% means that no infection is observed.

As for `N#C/N=C1/SCCN1Cc1ccc(Cl)nc1` [formula (I)], the Efficacy in % in test [1] (10 g/ha) is given as 0%; in [1] (50 g/ha), 11%; in test [1] (500 g/ha, 3 days after inoculation) it was 46%; in test [2], 0%; in [3] (10 g/ha, 2 days after inoculation), 0%; in [3] (40 g/ha), 0%. The Efficacy in % in test [3] (500 g/ha) and in [10] was 0% each time. Further, the Kill in % in test [4] (concentration 0.000032 %) amounted to 0%; in test [4] (concentration 0.00016 %) it was 35%; in test [7], 25%; in test [9] it was 15%. Moreover, the “Kill in % at active compound concentrations in ppm” value in [5] is reported as 1.25 ppm = 50%. The “Efficacy in % calculated/found” value in test [6] (18.75 g/ha) was 20%; in test [6] (62.5 g/ha, 7 days after inoculation), 0%. Further, the pest or weed control at 5 ppm in test [8] (5.00 ppm in soil) was 0%. Moreover, the pest or weed control at 10 ppm in test [8] (10.00 ppm in soil) was found to be 50%. Moreover, in test [8] (20.00 ppm in soil), the pest or weed control at 20 ppm was 100%.
